Molecules are shown by their SMILES. Read-outs that look alike come from different tables or passages of the source.

Data on three compounds can be found in patent US20230416209A1, “COMPOUNDS AND METHODS TO TARGET GLUCOSE-STIMULATED PHOSPHOHISTIDINE SIGNALING AND ESOPHAGEAL CANCER GROWTH” (Health Research, Inc., priority 2020, published 2023).

For one assay, the system named is ESCC (KYSE70) cells. Kind of assay: WST1 analysis of cisplatin combined with FAK H58 inhibitor, KYSE70. Format: cell-based. Particulars: KYSE70, 72 hr. As for the experimental part:
ESCC (KYSE70) cells were seeded on a 96-well plate at a density of 2000 cells/well in complete medium. The next day, medium was replaced with the serum-reduced medium (5% FBS) containing 0-80 μM of cisplatin and 5 fixed doses of H5 (0 μM, 5 μM, 10 μM, 20 μM, or 40 μM). The cells were kept for 72 hrs. WST1 analysis, a MTT-like assay, was performed to assess proliferation. Log (inhibition) vs. response-variable (four parameters). Prism was utilized to find the best-fit value and to calculate a complete confidence interval. […] ESCC (KYSE70) cells were seeded on a 96-well plate at a density of 2000 cells/well in complete medium. The next day, medium was replaced with the serum-reduced medium (5% FBS) containing 0-80 μM of cisplatin and 5 fixed doses of H5 (0 μM, 5 μM, 10 μM, 20 μM, or 40 μM). The cells were kept for 72 hrs. WST1 analysis, a MTT-like assay, was performed to assess proliferation. Log (inhibition) vs. response-variable (four parameters). Prism was utilized to find the best-fit value and to calculate a complete confidence interval. Synergistic effects of the chemotherapy drug combined with FAK H58 inhibitor. Chemotherapies are commonly used treatments for patients with ESCC. […] Cell proliferation was assessed using WST1, a MTT-like reagent. […]
(Tetrazolium dyes change colour on reduction, which living cells bring about.)

In another assay the test system is ESCC (KYSE520) cells. Kind of assay: WST1 analysis of cisplatin combined with FAK H58 inhibitor, KYSE520. In kind it is cell-based. As for the experimental part:
ESCC (KYSE520) cells were seeded on a 96-well plate at a density of 2000 cells/well in complete medium. The next day, medium was replaced with the serum-reduced medium (5% FBS) containing 0-80 μM of cisplatin and 5 fixed doses of H5 (0 μM, 5 μM, 10 μM, 20 μM, or 40 μM). The cells were kept for 72 hrs. WST1 analysis, a MTT-like assay, was performed to assess proliferation. Log (inhibition) vs. response—variable (four parameters). Prism was utilized to find the best-fit value and to calculate a complete confidence interval.
Synergistic effects of the chemotherapy drug combined with FAK H58 inhibitor. Chemotherapies are commonly used treatments for patients with ESCC. It was sought to determine whether the inhibition of glucose-induced G1-to-S phase transition of the cell cycle coupled with the interruption of DNA synthesis by chemotherapeutic agents is synergistic. ESCC cells (KYSE70 and KYSE520) were cultured in the medium containing reduced FBS (5%), 0-80 μM of cisplatin and 5 fixed doses of H5 (0, 5, 10, 20, or 40 μM) for 72 hr. Cell proliferation was assessed using WST1, a MTT-like reagent.
To assess the synergistic effects of cisplatin coupled with the FAK H58 inhibitor derivative (H5A), ESCC cells (KYSE70 and KYSE520) were treated with 0-80 μM of cisplatin and 5 fixed doses of H5 Å for 72 hr. The H5 derivative H5 Å enhanced the inhibitory effects of cisplatin in KYSE70 from 4 to 2 μM (FIG. 7) and in KYSE520 from 27 to 24 μM (FIG. 8), respectively.

A further assay concerns FAK^pHis58. The assay can be described thus: Glc-induced phosphorylation of FAK H58 in KYSE70 cells. Particulars: KYSE70 cells stimulated by Glc in the absence of growth factors. In kind it is cell-based. As for the experimental part: (§1) A. Top ranked small molecules that bind to FAK H58 site. B. FAK^His58 inhibitors attenuate Glc-induced phosphorylation of FAK H58. In the absence of growth factors, KYSE70 cells were stimulated by Glc with or without FAK^His58 inhibitors (H5). N=3, **: p<0.001 vs vehicle+Glc. C. Dose responses of FAK^His58 inhibitors on proliferation. KYSE70 cells were incubated in serum-free medium containing Glc, BrdU and varied concentrations of FAK^His58 inhibitors (H5). BrdU coupling ELISA was performed to assess the relative levels of newly synthesized BrdU-DNA. IC^50 values were calculated.
(§2) Reproducible test: BrdU coupling ELISA, pHis-FAK assays and IP/IB were performed to confirm the FAK H58 hit inhibition of ESCC proliferation, phosphorylation of FAK on H58 and FAK-RB1 interaction (FIGS. 2-4).

Another assay has as its target FAK-RB1 interaction (Homo sapiens, UniProt Q05397). Kind of assay: FAK-RB1 interaction assay (rFAK/rRB1 co-IP ELISA). In kind it is biochemical. Particulars: rFAK with 0-10 μM for 1 hr, then rRB1 3 hr. As for the experimental part: Then, rRB1 was added to mixture and kept at room temperature for 3 hr. The mixture was added to the anti-FAK antibody-coated plated. After extensive washing, the co-IPed rRB1 was detected using an anti-RB1 antibody.
A general note: In an ELISA, binding on a coated surface is turned into a signal by an enzyme label.

Another assay concerns KYSE70 cells. Kind of assay: BrdU coupling ELISA of Glc-induced ESCC cell proliferation. Format: cell-based. Conditions: Homo sapiens, KYSE-70, serum-free medium containing Glc, BrdU and varied concentrations of inhibitor, read-out: IC^50 on ESCC cell proliferation. As to the method: as §1, §2
In a further assay the test system is TE9. Kind of assay: WST-1 proliferation assay, TE9 cells. In kind it is cell-based. Particulars: Homo sapiens, TE-9; medium containing 5% FBS, 48 hr, WST-1 assay; read-out: IC^50 of H5 on ESCC cells, TE9.
In a further assay the test system is TE10 cells. Kind of assay: WST-1 proliferation assay, TE10 cells. In kind it is cell-based. Conditions: Homo sapiens, TE-10; medium containing 5% FBS, 48 hr, WST-1 assay; read-out: IC^50, TE10.
The subject of a further assay is NME1 (Homo sapiens). Kind of assay: NME1-catalyzed histidine phosphorylation of recombinant FAK (pHis-rFAK ELISA). Format: biochemical. Particulars: purified NME1 and rFAK, 0-1 μM, 3 hr. From the text:
A. Assessment of Glc-altered NM1 phosphorylation of pHis-FAK. NME1 was pulldown with an anti-NME1 antibody from KYSE70 cells +/−Glc stimulation and added to the anti-pHis antibody (rabbit)-coated wells. The anti-FAK (mouse) was used to detect the pHis-FAK on the plate. N=3, *: p<0.05, ***: p<0.001 and ****: p<0.0001 vs No NME1 or NME1 (−Glc). B. Glc increases NME1 in xenograft lysates derived from fasting mice +/−Glc. C. H5 attenuates NME1-increased levels of pHis-rFAk. Purified NMR1 and recombinant FAK (rFAK) were incubated in the NME kinase buffer in the presence of varied concentrations (0-1 μM) of vehicle of H5 for 3 hr. The relative levels of pHis-rFAK were assessed using ELISA.

Another assay concerns KYSE70. Kind of assay: WST-1 proliferation assay, KYSE70 cells. Conditions: Homo sapiens, KYSE-70; medium containing 5% FBS, 48 hr, WST-1 assay; read-out: IC^50 of H5 on ESCC cells, KYSE70. Format: cell-based.

NME1 (Homo sapiens), sequence (Q05397 whole entry): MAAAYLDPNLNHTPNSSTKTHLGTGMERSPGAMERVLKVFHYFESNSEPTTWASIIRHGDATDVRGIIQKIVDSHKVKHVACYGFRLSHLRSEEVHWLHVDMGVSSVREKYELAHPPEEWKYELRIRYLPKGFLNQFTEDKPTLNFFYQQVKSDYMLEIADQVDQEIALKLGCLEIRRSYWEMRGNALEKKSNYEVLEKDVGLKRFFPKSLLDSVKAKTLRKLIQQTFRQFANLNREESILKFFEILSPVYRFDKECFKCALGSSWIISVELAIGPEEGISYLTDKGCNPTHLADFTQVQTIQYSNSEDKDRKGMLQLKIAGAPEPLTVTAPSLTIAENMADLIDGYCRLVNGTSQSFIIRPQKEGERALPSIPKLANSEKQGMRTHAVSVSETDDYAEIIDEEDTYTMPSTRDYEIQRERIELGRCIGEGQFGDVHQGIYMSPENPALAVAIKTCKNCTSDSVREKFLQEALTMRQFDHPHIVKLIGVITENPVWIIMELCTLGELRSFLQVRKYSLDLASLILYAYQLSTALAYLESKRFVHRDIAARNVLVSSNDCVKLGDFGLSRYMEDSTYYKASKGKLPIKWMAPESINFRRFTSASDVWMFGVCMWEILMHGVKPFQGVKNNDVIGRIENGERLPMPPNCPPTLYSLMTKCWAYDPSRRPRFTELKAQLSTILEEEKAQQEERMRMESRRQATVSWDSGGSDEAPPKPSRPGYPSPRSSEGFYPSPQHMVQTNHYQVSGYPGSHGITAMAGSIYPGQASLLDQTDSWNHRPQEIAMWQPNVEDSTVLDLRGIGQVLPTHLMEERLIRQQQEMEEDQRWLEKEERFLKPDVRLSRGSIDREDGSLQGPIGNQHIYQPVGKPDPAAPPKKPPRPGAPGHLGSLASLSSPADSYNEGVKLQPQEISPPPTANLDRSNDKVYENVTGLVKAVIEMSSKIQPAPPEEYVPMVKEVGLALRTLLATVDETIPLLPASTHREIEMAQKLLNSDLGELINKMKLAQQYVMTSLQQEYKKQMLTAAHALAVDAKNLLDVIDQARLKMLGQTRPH
FAK-RB1 interaction, sequence (Q05397 whole entry): as above

In the case of `N.N.[Cl][Pt][Cl]` [cisplatin], the IC50 in the assay with ESCC (KYSE70) cells (before adding H5A, read-out: IC50 of cisplatin (inhibitory effects)) is 4 µM; with ESCC (KYSE70) cells (fixed doses of H5A, read-out: IC50 of cisplatin combined with H5A) it was 2 µM; with ESCC (KYSE520) cells (KYSE520, 5% FBS, 72 hr, before adding H5, read-out: IC50 of cisplatin), 31 µM; with ESCC (KYSE520) cells (KYSE520, 5% FBS, 72 hr, fixed doses of H5 (5-40 μM), read-out: IC50 of cisplatin combined with H5), 23 µM; in the assay on ESCC (KYSE520) cells (KYSE520, 72 hr, before adding H5A, read-out: IC50 of cisplatin (inhibitory effects)), 27 µM; in the assay with ESCC (KYSE520) cells (KYSE520, 72 hr, fixed doses of H5A, read-out: IC50 of cisplatin combined with H5A) it was 24 µM.

As to `O=c1nc(-c2ccccc2)c(-c2ccccc2)n[nH]1` [H5, 5,6-diphenyl-1,2,4-triazin-3(2H)-one], in the assay on FAK^pHis58, the “Effect on Glc-induced FAK^pHis58” value is “decreased Glc-induced FAK^pHis58”. Besides, the “Effect on FAK-RB1 interaction” value at FAK-RB1 interaction is “prevents Glc-induced FAK-RB1 interaction”. The IC50 with KYSE70 cells came to 9 µM; in the assay on TE9 it was 0.38 µM; with TE10 cells, 0.088 µM; in the assay on KYSE70, 5.7 µM. Besides, the “Effect of combination with cisplatin on proliferation” value in the assay on ESCC (KYSE520) cells (KYSE520, 72 hr) is recorded as “enhanced the effects of cisplatin”. The “Effect on NME1-catalyzed FAK^pHis (pHis-rFAK levels)” value in the assay on NME1 (Homo sapiens) was “attenuates NME1-catalyzed FAK^pHis”.

Turning to `CCOC(=O)CSc1nnc(-c2ccccc2)c(-c2ccccc2)n1` [H5B, ethyl [(5,6-diphenyl-1,2,4-triazin-3-yl)thio]acetate], the IC50 in the assay with TE10 cells came to 0.065 µM.
